Series [1] relates to ROS production. Nature of the series: ROS production in vitro under direct LED illumination of other photosensitizers. The following applies: compared with Ce6. The source says:
The system can be adapted for use with other photosensitizers.

In series [2] the test system is MB49 cells. Nature of the series: Cell viability (MTS assay) of Ce6-incubated MB49 cells after irradiation. In kind it is cell-based, murine. Conditions: for cell kill (MTS assay): 20 min irradiation, 1.3 mW. The protocol:
(§1) Using Ce6-incubated murine bladder cancer cells, ROS production was further validated against red laser irradiation, the current clinical standard, in two configurations: (i) cells directly exposed to the radio-frequency/laser source, and (ii) cells placed under thick (3 cm) porcine tissue, simulating light delivery to deep tissue regions.
(§2) FIGS. 18a to 18d illustrate test configurations for investigating ROS production. FIG. 18a illustrates a test configuration in which laser light is directly incident on the MB49 cells and FIG. 18 illustrates a test configuration in which the laser light travels through 3 cm of tissue. The laser illumination was carried out with the following intensity 37.5 mW/cm^2, 4 J/cm^2. FIG. 18c illustrates a test configuration in which a wirelessly powered implantable device is powered without intervening tissue. For this configuration near-field (NF) wireless powering was used. FIG. 18d illustrates a test configuration in which a wirelessly powered implantable device is powered without though 3 cm of tissue. For this configuration mid-field (MF) wireless powering was used.
Change in cell viability (MTS assay) following 20 min of irradiation in the above light delivery configurations is shown. The light dosing rate was 1.3 mW throughout. Groups include untreated cells, cells exposed to Ce6 alone, cells exposed to light alone and cells incubated with Ce6 and exposed to light from a laser or the device with or without intervening tissue section.
(Tetrazolium dyes change colour on reduction, which living cells bring about.)

The subject of series [3] is solid tumor from MB49 bladder cancer cells. Nature of the series: Cancer PDT in C57 BL/6 mice bearing MB49 tumors, wireless light delivery. In kind it is in vivo. The protocol: Treatments were administered on Day 3 (T1) and Day 9 (T2) with a light dose of 1.3 mW over 30 min. Graphs show mean±s.d. (n=5 per group). The light dose was set to the same level (1.3 mW, 30 min) as used in the in vitro experiments. Devices were implanted in the interstitial space around a solid tumor grown to 4-6 mm diameter from MB49 bladder cancer cells subcutaneously injected into the hind region. After a recovery period, PDT was performed by intratumoral injection of Ce6 followed 4 hours later by wireless delivery of the light dose. […] Control groups were left untreated; received Ce6 injections only, received sham devices only, or given light doses using functional devices without Ce6 injection. […] Monitoring of tumor volume ended 13 days after first treatment, beyond which tumors in the majority of the mice from control groups either reached ethical size limits or were ulcerated. […] Tumor volumes cleared by PDT at the prescribed light dose are consistent with light transport calculations and measurements.

Series [4] relates to C6 rat glioma cells. Nature of the series: Cell kill in C6 rat glioma by UV light triggered PDT. Type of series: cell-based. The following applies: Ce6 PDT triggered by UV/violet light emitting devices, in vitro.
The subject of series [5] is solid tumor from MB49 bladder cancer cells. Nature of the series: Histology after a single round of PDT, wireless device versus direct laser illumination. Type of series: in vivo, mice. The protocol: We compared the therapy to PDT by direct laser illumination, the current clinical standard, by histological examination of the tissue following a single round of treatment. […] The white lines labelled “T.B.” indicates a tissue boundary. Tumor-bearing mice were injected intratumorally with Ce6 and administered either the prior light dose using the wireless device or using a red laser (660 nm) collimated to a 5-mm diameter spot.

The test system of series [6] is ROS production. Nature of the series: ROS production in Ce6 solution around device implanted in adult pig model. The following applies: 5 μM Ce6 solution; device 5.1 cm deep on liver surface, wirelessly powered through tissue; vs control solution with no Ce6. The protocol: To illustrate that the implantable illumination devices could be powered through thick tissue at depths relevant to human scales, ROS production studies were conducted in an adult pig model.
FIGS. 16a to 16c show computed tomography (CT) reconstructions of the radio-frequency transmitter and device implanted an adult pig model.
The control (No Ce6) was a control solution with no Ce6 and the test solution was a solution containing 5 μM Ce6.

The subject of series [7] is ROS production. Nature of the series: ROS production by Ce6 illuminated with wireless LED mesh device (405 nm or 660 nm). Conditions: UV/violet (405 nm) light versus red (660 nm) light. An excerpt:
Depending on the absorption spectrum of the photosensitizer used and the size of the tumor, the devices can be customized to emit a suitable light wavelength. The photosensitizer Ce6 (chlorin e6) has a strong absorption peak at 405 nm and a weaker one at 660 nm.
FIG. 33A is a graph showing production of reactive oxygen species (ROS) by Ce6 when illuminated using a wireless illumination device emitting red (660 nm) light. FIG. 33B is a graph showing production of reactive oxygen species (ROS) by Ce6 when illuminated using a wireless illumination device emitting UV/violet (405 nm) light.

Series [8] relates to MB49 cells. Nature of the series: Apoptosis index (TUNEL assay) in MB49 cells. In kind it is cell-based, murine. The protocol: as §2
Cell death could be attributed to apoptosis, a widely accepted mechanism for PDT-mediated cytotoxicity. Apoptosis index (TUNEL assay) including positive and negative controls from the assay are shown.

Series [9] concerns MB49 cells. Nature of the series: Cellular ROS production (Image-iT live Green ROS sensor fluorescence). In kind it is cell-based, murine. On the procedure: as §1, §2
FIGS. 21a to 21g show florescence images of treated cells and control cells. FIGS. 21a and 21b show cells treated following incubation with Ce6 and illuminated with respectively, the direct laser configuration and, the though tissue laser configuration. FIGS. 21c and 21d show cells treated following incubation with Ce6 and illuminated with respectively, the near field (direct) wireless configuration and, the though tissue (mid field) wireless configuration. FIGS. 21e to 21g show control scenarios. […] The results were obtained from a fluorogenic, cell-permeable ROS sensor (Image-iT live Green ROS).
In all cases, significant cell death resulted from oxidative stress.

[10] abbreviates: intratumoral Ce6 + red laser (660 nm), 5-mm spot.
The mark [11] stands for this setting: intratumoral Ce6 + wireless device light dose.

Turning to `[Zn+2].c1ccc2c(c1)-c1nc-2nc2[n-]c(nc3nc([n-]c4nc(n1)-c1ccccc1-4)-c1ccccc1-3)c1ccccc21` [zinc phthalocyanine], the “levels of ROS in vitro (normalized fluorescence)” value in series [1] was “comparable levels of ROS”.

On to Chlorin e6 [Ce6], for which the “change in cell viability (MTS assay)” value in series [2] (Ce6 + laser illumination obstructed by thick (3 cm) tissue, P=0.178) is “did not result in a significant difference in cell viability”; in [2] (Ce6 + laser illumination, direct) it was “effective at reducing cell viability”. The “cell kill (MTS assay)” value in [2] (Ce6 + wireless light delivery through thick (3 cm) tissue (mid-field), P=0.0039) was around 80%; in series [2] (Ce6 + wireless light delivery, direct (near-field), P=0.0027), around 80%. In series [3] (across all groups of mice incl. Ce6 + wireless light), the “body weight over the treatment period” value is “did not show appreciable weight loss”. The “tumor volume as a function of time” value in [3] (intratumoral Ce6, wireless light dose 1.3 mW 30 min 4 hours later, two treatments, monitored to 13 days after first treatment, vs control groups) was “suppression, and in some cases complete regression, of tumors”. The “apoptotic cells in resected tumors (TUNEL staining)” value in series [3] (treatment group (Ce6 + wireless light) compared to control groups) is reported as “significantly greater population of apoptotic cells”. For the same molecule, the cell death entry in series [4] is reported as “about 80%”. The “apoptosis in explanted tumor tissues (TUNEL staining)” value in [5] (setting [10]) and in series [5] (setting [11]) was “comparable apoptosis” each time. Moreover, the “damage in tissues adjacent to the tumor (TUNEL staining)” value in series [5] (setting [10]) and in [5] (setting [11]) was “did not show significant damage” in each case. Further, in series [6], the “ROS production in Ce6 solution” value is on record as “significant ROS production”. For the same molecule, in [7], the ROS yield result was “ROS yield is higher”. The “apoptosis index (TUNEL assay)” value in [8] (Ce6 + laser, direct) was “high apoptosis”; in series [8] (Ce6 + laser, through 3 cm tissue), “low and comparable to the untreated control scenario”; in [8] (Ce6 + wireless device, direct (near-field)), “high apoptosis”; in series [8] (Ce6 + wireless device, through 3 cm tissue (mid-field)) it was “high apoptosis”. The ROS-induced fluorescence signal entry is given as “insignificant ROS-induced fluorescence” in series [9] (Ce6 + laser illumination, beam obstructed with thick tissue); “effective only under direct irradiation” in series [9] (Ce6 + laser illumination, direct irradiation); “increased signal” in [9] (Ce6 + wireless illumination, close proximity to radio-frequency source); “increased signal” in series [9] (Ce6 + wireless illumination, through thick tissue). Moreover, the ROS production entry in [9] (Ce6 exposure alone (no light)) was “did not result in significant ROS production”.

The record behind these values is patent US11896843B2, “Photodynamic therapy devices, systems and methods” (NATIONAL UNIVERSITY OF SINGAPORE, priority 2018, dated 2024).
